From patent US6939859B1, “Skin preparations for external use” (CCI Corp., priority 1999, dated 2005)

What was measured:
interleukin-1α (IL-1α) [1] = experiment: Effect of preventing UVB-induced cytokine (IL-1α production, sample present during irradiation); format: cell-based; conditions: cornified cells of normal human neonate foreskin; 0.1 mM sample during UVB 30 mJ/cm^2; 6 h culture; ELISA; means ± S.E.
Experimental: Cornified cells of normal human neonate foreskin scurfskin (freeze-preserved product, made by Kurabo K.K.) were adjusted to a cell density of 1.0×10^5 pieces/ml in a HuMedia-KG2 culture medium (made by Kurabo K.K.), sown in a unit volume of 2 ml in the component wells of a 6-hole plate, and cultured in an atmosphere of 5% CO2 at 37° C. for 24 hours. After completion of the culture, the culture medium was removed and the wells were each washed twice with 2 ml of Hanks buffer. Some of these wells to which the Hanks buffer alone was added in a unit amount of 1 ml formed a control group and the remainders of them to which the Hanks buffer containing 0.1 mM of a given sample was added in a unit amount of 1 ml formed a sample-added group. The groups each consisted of 8 samples. They were irradiated with a UVB (312 nm) emitted from an ultraviolet lamp (made by Cosmo Bio K.K.) at a dosage of 30 mJ/cm^2. The amount of the energy so emitted was measured by the use of an ultraviolet light intensity meter (made by Topcon K.K. and sold under the trademark designation of “UVR-2).
Immediately after completion of the irradiation, the wells were each washed twice with 2 m of Hanks buffer. With a HuMedia-KG2 culture medium added in a unit volume of 1 ml to the wells, the contents of the wells were cultured in an atmosphere of 5% CO2 at 37° C. for 6 hours.
(§1) The supernatant occurring at the end of 6 hours' culture was recovered and centrifuged at 1000 rpm for 5 minutes. The concentration of the IL-1α in the resultant supernatant was determined by the use of an ELISA kit made by ENDOGENE Corp. The significance was verified by the t-test and was applied to the groups yet to be treated.

interleukin-1α (IL-1α) [2] = experiment: Effect of curing UVB disorder (IL-1α production, sample added after irradiation); format: cell-based; conditions: cornified cells of normal human neonate foreskin; 0.1 mM sample added after UVB 30 mJ/cm^2; 6 h culture; ELISA; means ± S.E.
Experimental: Cornified cells of normal human neonate foreskin scurfskin (freeze-preserved product, made by Kurabo K.K.) were adjusted to a cell density of 1.0×10^5 pieces/ml in a HuMedia-KG2 culture medium (made by Kurabo K.K.), sown in a unit volume of 2 ml in the component wells of a 6-hole plate, and cultured in an atmosphere of 5% CO2 at 37° C. for 24 hours. After completion of the culture, the culture medium was removed and the wells were each washed twice with 2 ml of Hanks buffer. The Hanks buffer alone was added in a unit volume of 1 ml to the wells. They were irradiated with a UVB (312nm) emitted from an ultraviolet lamp (made by Cosmo Bio K.K.) at a dosage of 30 mJ/cm”. The amount of the energy so emitted was measured by the use of an ultraviolet light intensity meter (made by Topcon K.K. and sold under the trademark designation of “UVR-2”) . . . . Some of these wells to which the Hanks buffer alone was added in a unit amount of 1 ml formed a control group and the remainders of them to which the Hanks buffer containing 0.1 mM of a given sample was added in a unit amount of 1 ml formed a sample-added group. The groups each consisted of 8 samples. The contents of the wells were cultured in an atmosphere of 5% CO2 at 37° C. for 6 hours.
as §1

[3] = system: diploid fibroblasts originating in the skin of a normal person (NB1RGB); experiment: Test for confirming effect of preventing ultraviolet light (UVB) disorder, NB1RGB cells; format: cell-based, human; conditions: 1 mM chromanol glycoside, UVB 312 nm 60 mJ/cm^2, 72 h culture, neutral red, non-irradiated = 100%
Experimental: (§2) The fibroblasts originating in the lungs of Chinese hamster (V79) or the diploid fibroblasts originating in the skin-of a normal person (NB1RGB) were adjusted in a culture medium till the cell density reached 5.0×10^4 pieces/ml, sown at a rate of 100 μl in each of the wells on a 96-hole plate, and cultured in an atmosphere of 5% CO2 kept at 37° C. for 24 hours. As the culture medium, an E-MEM medium containing 10% bovine fetus serum (made by Nissui K.K.) For V79 or an α-MEM medium (made by SIGMA) for NB1RGB (hereinafter each referred to as “ordinary culture medium”).
(§3) After 24 hours' culture, the culture medium was removed and the individual wells were each washed twice with 200 μl of Hanks equilibrium salt buffer (Hanksbuffer). Some of these wells to which the Hanks buffer alone was added in a unit amount of 100 μl formed a control group and the remainders of them to which the Hanks buffer having a given chromanol glycoside dissolved till a final concentration of 1 mM was added in a unit amount of 100 μl formed a chromanol glycoside-added group. The groups each consisted of 46 samples. They were irradiated with a UVB (312 nm) emitted from an ultraviolet lamp (made by Cosmo Bio K.K.) at a dosage of 60 mJ/cm^2. The amount of the energy so emitted was measured by the use of an ultraviolet light intensity meter (made by Topcon K.K. and sold under the product code of “UVR-2”).
(§4) Immediately after completion of the irradiation, the wells were each washed twice with 200 μl. With the ordinary culture medium added in a unit volume of 100 μl to the wells, the contents of the wells were cultured for 72 hours. After the elapse of 72 hours from thence, the neutral red reagent (0.015%) was added in a unit volume of 100 μl to the wells and the resultant contents of the wells were cultured for 3 hours. After the elapse of 3 hours from thence, the culture medium was removed and a fixing solution (aqueous solution containing 0.5% of formaldehyde and 0.1% of calcium chloride) was added in a unit volume of 200 μl to the wells. The resultant contents of the wells were fixed for one minute and the fixing solution was removed from the wells. Then, an extracting solution (aqueous solution containing 50% of ethanol and 1% of acetic acid) were added in a unit volume of 100 μl to the wells. The resultant contents of the wells were left standing for 20 minutes and assayed with a micro-plate reader for the absorbency at 490 nm and visually examined to count the number of live cells. On the basis of the results of the assay, the relative survival ratios of the samples were determined, with the number of cells in the groups of wells not irradiated with the ultraviolet light taken as 100%.

[4] = system: fibroblasts originating in the lungs of Chinese hamster (V79); experiment: Test for confirming effect of preventing ultraviolet light (UVB) disorder, V79 cells; format: cell-based; conditions: 1 mM chromanol glycoside, UVB 312 nm 60 mJ/cm^2, 72 h culture, neutral red, non-irradiated = 100%
Experimental: as §2, §3, §4

NB1RGB = experiment: Test for confirming effect of promoting growth of cells, NB1RGB; format: cell-based, human; conditions: 100 μM chromanol glycoside, 72 h, neutral red, control = 100%
Experimental: (§5) V79 or NB1RGB was adjusted with a culture medium till the cell density reached 5×10^4 pieces/ml. Then, it was sown in a unit volume of 100 μl in the component wells of a 96-hole plate and cultured in an atmosphere of 5% CO2 at 37° C. for 72 hours. The culture medium used herein was the ordinary culture medium. Some of the wells effecting culture in the ordinary culture medium containing 100 μM of chromanol glycoside formed a chromanol glycoside-added group and the remainders of the wells effecting culture in the ordinary culture medium formed a control group. The groups each consisted of 80 samples. After the elapse of 72 hours from thence, a neutral red reagent (0.015%) was added in a unit volume of 100 μl to the wells and the resultant contents of the wells were cultured for 3 hours. After the 3 hours' culture, the culture medium was removed and a fixing solution (aqueous solution containing 0.5% of formaldehyde and 0.1% of calcium chloride) was added in a unit volume of 200 μl to the wells. The resultant contents of the wells were left fixing for one minute and then the fixing solution was removed. Subsequently, an extraction solution (aqueous solution containing 50% of ethanol and 1% of acetic acid) was added in a unit volume of 100 μl to the wells. The resultant contents of the wells were left standing for 20 minutes and measured for absorbency at 490 nm by the use of a micro-plate reader so as to allow computation of the number of cells. On the basis of the results of the measurement, the relative breeding ratios of the samples were determined, with the number of cells in the control groups taken as 100%.

V79 = experiment: Test for confirming effect of promoting growth of cells, V79; format: cell-based, Chinese hamster; conditions: 100 μM chromanol glycoside, 72 h, neutral red, control = 100%
Experimental: as §5

[5] = system: pigment-sedimented skin of colored guinea pigs; experiment: Improving effect relative to deposition of ultraviolet light-induced pigment; format: in vivo, guinea pig; conditions: 5% TMG solution in 50% ethanol, applied twice daily for three weeks, 5.6 μl/cm^2; brightness of skin (L value)
Experimental: Pigment-sedimented models wee produced from Al-1 type colored guinea pigs (female, 7-week old) divided into groups of 6 heads by shaving their backs and performing the irradiation of the skins of the backs with the ultraviolet light (light source: xenon lamp, dose: 2 MED×1 minute) once daily up to a total of three repetitions three to four days apart. After the models had been left standing for 10 days from thence, the specific portions of the pigment-sedimented parts were measured for the brightness of skin (L value) by the use of a calorimeter (former value). To the pigment-sedimented parts, a 5% TMG solution adjusted by using a 50% ethanol solution as a solvent was applied twice daily continuously for three weeks (amount applied:5.6 μl/cm^2). The guinea pigs which had undergone this application formed a TMG-applied group. The guinea pigs which had undergone application of a 50% ethanol solution in the place of the 5% TMG solution formed a control group. After three weeks from the start of the application, the skins of their backs were measured for the brightness with a calorimeter (latter value) to find the ΔL value(former value−lattervalue).

ICR type mice = experiment: Test for acute toxicity; format: in vivo; conditions: oral, 500 mg/kg as TMG in 5% gum arabic, observation for one week
Experimental: The dermatological agent for external use of this invention was tested for acute toxicity so as to establish the safety thereof. ICR type mice4-5 weeks old were divided into groups each of three heads. The same TMG as mentioned above was suspended as a chromanol glycoside in a 5% gum arabic solution. The suspension was orally administered to the mice at a unit dosage of 500 mg/kg as reduced to TMG and the mice were kept under observation for one week. To the mice in the control group, a 5% gum arabic solution was orally administered in a unit volume of 0.3 ml. No fatality was found in any of the mice in the administration group.

## O=C1O[C@H]([C@@H](O)CO)C(O)=C1O [Ascorbic acid]
interleukin-1α (IL-1α) [1]
  Amount of IL-1α produced, Effect of prevention: 16.5 ± 2.8 µg/mL
interleukin-1α (IL-1α) [2]
  Amount of IL-1α produced, Effect of curing: 31.7 ± 5.0 µg/mL

## N[C@@H](CCC(=O)N[C@@H](CS)C(=O)NCC(=O)O)C(=O)O [Glutathione]
interleukin-1α (IL-1α) [1]
  Amount of IL-1α produced, Effect of prevention: 7.2 ± 3.4 µg/mL
interleukin-1α (IL-1α) [2]
  Amount of IL-1α produced, Effect of curing: 36.5 ± 1.6 µg/mL

## Cc1c(C)c2c(c(C)c1O)CCC(C)(C[C@]1(CO)O[C@H](CO)[C@@H](O)[C@@H]1O)O2 (stereo partly drawn) [TMFR, 2-(β-D-Fructofuranosyl)methyl-2,5,7,8-tetramethyl chroman-6-ol]
[3]
  Survival ratio (%): 81 ± 12 %
[4]
  Survival ratio (%): 89 ± 9 %
NB1RGB
  Breeding ratio (%): 115%
V79
  Breeding ratio (%): 126%

## Cc1c(C)c2c(c(C)c1O)CCC(C)(C[C@H]1O[C@H](CO)[C@@H](O)[C@H](O)[C@H]1O)O2 (stereo partly drawn) [TMG, 2-(α-D-Glucopyranosyl)methyl-2,5,7,8-tetramethyl chroman-6-ol]
[3]
  Survival ratio (%): 78 ± 16 %
[4]
  Survival ratio (%): 75 ± 8 %
interleukin-1α (IL-1α) [1]
  Amount of IL-1α produced, Effect of prevention: 14.5 ± 3.5 µg/mL
[5]
  ΔL value: 2.00
interleukin-1α (IL-1α) [2]
  Amount of IL-1α produced, Effect of curing: 18.5 ± 4.2 µg/mL
NB1RGB
  Breeding ratio (%): 118%
ICR type mice
  Fatality (acute toxicity): No fatality
V79
  Breeding ratio (%): 112%

## Cc1c(C)c2c(c(C)c1O)CCC(C)(C[C@@H]1O[C@H](CO)[C@H](O)[C@H](O)[C@H]1O)O2 (stereo partly drawn) [TMGA, 2-(β-D-Galactopyranosyl)methyl-2,5,7,8-tetramethyl chroman-6-ol]
[3]
  Survival ratio (%): 83 ± 14 %
[4]
  Survival ratio (%): 83 ± 7 %
NB1RGB
  Breeding ratio (%): 121%
V79
  Breeding ratio (%): 115%

## Cc1c(C)c2c(c(C)c1O)CCC(C)(C[C@H]1O[C@H](CO)[C@@H](O)[C@H](O)[C@@H]1O)O2 (stereo partly drawn) [TMMA, 2-(α-D-Mannopyranosyl)methyl-2,5,7,8-tetramethyl chroman-6-ol]
[3]
  Survival ratio (%): 79 ± 8.7 %
[4]
  Survival ratio (%): 96 ± 9 %
NB1RGB
  Breeding ratio (%): 121%
V79
  Breeding ratio (%): 124%
